Measured values reported in patent US4555513A, “1,2 Dihydro- and 1,2,3,4-tetrahydro quinolylacetic acids and analgesic use thereof” (priority 1982, dated 1985).
Where two headings read alike, the source gives them in different places.

Experiments:
[1] = Acute toxicity (oral, mortality after 72 hours); conditions: mouse, in vivo
Procedure: Groups of 10 male dd mice weighing some 18 g were orally administered the examined drugs and the number of death p 72 hours later was recorded.

[2] = tested on: dd mice; assay: Analgesic effects by a modified Haffner method; format: in vivo, mouse (dd mice); conditions: with morphine hydrochloride 2 mg/kg s.c.
Procedure: Group of 10 dd mice were orally administered the examined drugs and 30 minutes later 2 mg/kg of morphine hydrochloride, the threshold dose, was injected subcutaneously. At 15, 30, 45 and 60 minutes thereafter, the root of mouse's tail was squeezed with a Kocher's forceps.

[3] = tested on: dd mice; assay: Analgesic effects by acetic acid writhing test; format: in vivo, mouse (male dd mice)
Procedure: 30 minutes after the examined drug was orally given, 0.1 ml/10 g of 0.6% acetic acid solution was intraperitoneally administered to group of 10 male dd mice weighing some 18 g. The number of stretching was calculted during an observation period of 15 to 20 minutes after acetic acid treatment. The average inhibition rate of stretching among 8 animals was regarded as the inhibition rate of the drug, excluding 2 animals showing maximum and minimum numbers of stretching.

[4] = 800 mg/kg oral, 72 hours, read-out: Mortality
[5] = 400 mg/kg oral, 72 hours, read-out: Mortality

Which mortality at 72 h [1, 4] does the source give for `Cc1c(N(C)C)c(=O)n(-c2ccccc2)n1C` [Aminopyrine, reference compound] here?
The mortality at 72 h was 100%.

What about the Analgesic effects ([2]; 100 mg/kg oral) of the same compound?
The Analgesic effects was 30%.

What about the Analgesic effects ([2]; 200 mg/kg oral) of the same compound?
The Analgesic effects was 35%.

What about the “Analgesic effects (inhibition rate of stretching)” value ([3]; 50 mg/kg oral) of the same compound?
Its value is 14%.

And the “Analgesic effects (inhibition rate of stretching)” value ([3]; 100 mg/kg oral)?
Its value is 47%.

And the “Analgesic effects (inhibition rate of stretching)” value ([3]; 150 mg/kg oral)?
The value was 60%.

With `CC(C(=O)O)c1cc(Cl)c2c(c1)C=CC(C)(C)N2` (stereo not drawn) [Compound 35, 2-(8-Chloro-1,2-dihydro-2,2-dimethylquinolin-6-yl)propionic acid] as the compound, how does the mortality at 72 h [1, 5] read?
The mortality at 72 h was 0%.

What about the mortality at 72 h [1, 4] of the same compound?
The mortality at 72 h was 20%.

And the Analgesic effects ([2]; 100 mg/kg oral)?
Its Analgesic effects is 35%.

And the Analgesic effects ([2]; 200 mg/kg oral)?
Its Analgesic effects is 50%.

And the “Analgesic effects (inhibition rate of stretching)” value ([3]; 50 mg/kg oral)?
The value was 37%.

And the “Analgesic effects (inhibition rate of stretching)” value ([3]; 100 mg/kg oral)?
The value was 52%.

And the “Analgesic effects (inhibition rate of stretching)” value ([3]; 150 mg/kg oral)?
The value was 68%.

Which results are given for `CC(C(=O)O)c1cc(Cl)c2c(c1)CCC(C)(C)N2` (stereo not drawn) [Compound 36, 2-(8-Chloro-1,2,3,4-tetrahydro-2,2-dimethylquinolin-6-yl)propionic acid]?
mortality at 72 h [1, 5]: 0%; mortality at 72 h [1, 4]: 10%; Analgesic effects ([2]; 100 mg/kg oral): 30%; Analgesic effects ([2]; 200 mg/kg oral): 55%; Analgesic effects (inhibition rate of stretching) ([3]; 50 mg/kg oral): 36%; Analgesic effects (inhibition rate of stretching) ([3]; 100 mg/kg oral): 61%; Analgesic effects (inhibition rate of stretching) ([3]; 150 mg/kg oral): 73%

For `CCCCC1C(=O)N(c2ccccc2)N(c2ccccc2)C1=O` [Phenylbutazone, reference compound], which mortality at 72 h ([1]; po, 600 mg/kg) is on record?
Its mortality at 72 h is 100%.
